# “And” between values parts separate entries of the source, which are not always exact repeats. Identical values can stand only once.
# Assays:
# Cannabinoid receptor 2 [1] = target: T1, Cannabinoid receptor 2 (Homo sapiens, UniProt P34972); assay: Binding affinity to CB2 receptor (unknown origin) assessed as inhibition constant
# Cannabinoid receptor 1 [2] = target: T2, Cannabinoid receptor 1 (Homo sapiens, UniProt P21554); assay: Binding affinity to CB1 receptor (unknown origin) assessed as inhibition constant
# T2 sequence (P21554 whole entry): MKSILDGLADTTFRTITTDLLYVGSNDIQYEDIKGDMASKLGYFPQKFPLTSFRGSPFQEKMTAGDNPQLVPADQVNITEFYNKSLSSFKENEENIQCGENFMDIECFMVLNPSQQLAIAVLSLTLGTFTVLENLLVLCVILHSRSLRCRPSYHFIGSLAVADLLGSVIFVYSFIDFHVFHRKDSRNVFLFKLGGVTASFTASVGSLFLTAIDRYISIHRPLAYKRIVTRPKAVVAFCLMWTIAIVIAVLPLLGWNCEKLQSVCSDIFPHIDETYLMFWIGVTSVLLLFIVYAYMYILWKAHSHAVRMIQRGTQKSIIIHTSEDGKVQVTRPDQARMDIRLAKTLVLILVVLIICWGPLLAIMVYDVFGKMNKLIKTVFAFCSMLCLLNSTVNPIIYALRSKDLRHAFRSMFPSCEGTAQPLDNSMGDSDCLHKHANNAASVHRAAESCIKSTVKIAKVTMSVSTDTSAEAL
# [3] = Selectivity ratio of Ki for CB1 receptor (unknown origin) to Ki for CB2 receptor (unknown origin)
# Cannabinoid receptor 1 [4] = target: T3, Cannabinoid receptor 1 (Rattus norvegicus, UniProt P20272); assay: Displacement of [3H]HU-243 from Sabra rat brain synaptosome CB1 receptor assessed as inhibition constant incubated for 90 mins; assay type: subcellular
# T3 sequence (P20272 whole entry): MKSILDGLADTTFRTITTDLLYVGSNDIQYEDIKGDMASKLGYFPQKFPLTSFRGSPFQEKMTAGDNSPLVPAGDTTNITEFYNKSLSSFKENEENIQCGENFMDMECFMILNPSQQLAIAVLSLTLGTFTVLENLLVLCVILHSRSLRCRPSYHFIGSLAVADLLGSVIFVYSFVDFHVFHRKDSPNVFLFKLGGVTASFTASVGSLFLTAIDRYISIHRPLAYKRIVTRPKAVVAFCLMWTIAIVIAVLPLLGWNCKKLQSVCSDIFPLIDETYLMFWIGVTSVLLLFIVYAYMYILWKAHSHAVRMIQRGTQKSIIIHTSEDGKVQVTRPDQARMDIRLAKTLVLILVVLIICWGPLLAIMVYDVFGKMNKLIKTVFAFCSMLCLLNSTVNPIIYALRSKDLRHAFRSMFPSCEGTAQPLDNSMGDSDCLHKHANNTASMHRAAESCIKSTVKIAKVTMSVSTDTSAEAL
# Cannabinoid receptor 2 [5] = target: T1, Cannabinoid receptor 2; assay: Displacement of [3H]HU-243 from CB2 receptor (unknown origin) extracted from green monkey COS-7 cell membrane assessed as inhibition constant incubated for 90 mins; assay type: cell membranes
# [6] = Selectivity index, ratio of Ki for Sabra rat brain synaptosome CB1 receptor to Ki for CB2 receptor (unknown origin) extracted from green monkey COS-7 cells
# Cannabinoid receptor 1 [7] = target: T2, Cannabinoid receptor 1; assay: Displacement of [3H]CP-55,940 from human CB1 receptor extracted from HEK293 cell membrane assessed as inhibition constant incubated for 90 mins by liquid scintillation spectrophotometric analysis; assay type: cell membranes
# Cannabinoid receptor 2 [8] = target: T1, Cannabinoid receptor 2; assay: Displacement of [3H]CP-55,940 from human CB2 receptor extracted from HEK293 cell membrane assessed as inhibition constant incubated for 90 mins by liquid scintillation spectrophotometric analysis; assay type: cell membranes
# Homo sapiens = species on record: Homo sapiens; assay: Selectivity ratio of Ki for human CB1 receptor extracted from HEK293 cell membrane to Ki for human CB2 receptor extracted from HEK293 cell membrane
# Cannabinoid receptor 2 [9] = target: T1, Cannabinoid receptor 2; assay: Displacement of [3H]CP-55,940 from human CB2 receptor extracted from CHO cell membrane assessed as inhibition constant incubated for 90 mins; assay type: cell membranes
# Cannabinoid receptor 1 [10] = target: T3, Cannabinoid receptor 1; assay: Displacement of [3H]CP-55,940 from Sabra rat brain synaptosome CB1 receptor assessed as inhibition constant incubated for 90 mins; assay type: subcellular
# [11] = Selectivity index, ratio of Ki for Sabra rat brain synaptosome CB1 receptor to Ki for human CB2 receptor extracted from CHO cell membrane
# [12] = Inhibition of [14C]-arachidonoylethanolamide uptake in rat RBL-2H3 cells assessed as increase in AEA level incubated for 5 mins by scintillation counting; assay type: functional, cell-based; conditions: RBL-2H3, 5 min
# [13] = target: Transient receptor potential cation channel subfamily V member 1 (Homo sapiens, UniProt Q8NER1); assay: Agonist activity at human TRPV1 receptor expressed in HEK293 cells assessed as effect on [Ca2+]i preincubated with capsazepine for 30 mins followed by compound addition by Fluo-3 probe based fluorescence analysis; assay type: cell-based
# Transient receptor potential cation channel subfamily V member 1, sequence (Q8NER1 whole entry): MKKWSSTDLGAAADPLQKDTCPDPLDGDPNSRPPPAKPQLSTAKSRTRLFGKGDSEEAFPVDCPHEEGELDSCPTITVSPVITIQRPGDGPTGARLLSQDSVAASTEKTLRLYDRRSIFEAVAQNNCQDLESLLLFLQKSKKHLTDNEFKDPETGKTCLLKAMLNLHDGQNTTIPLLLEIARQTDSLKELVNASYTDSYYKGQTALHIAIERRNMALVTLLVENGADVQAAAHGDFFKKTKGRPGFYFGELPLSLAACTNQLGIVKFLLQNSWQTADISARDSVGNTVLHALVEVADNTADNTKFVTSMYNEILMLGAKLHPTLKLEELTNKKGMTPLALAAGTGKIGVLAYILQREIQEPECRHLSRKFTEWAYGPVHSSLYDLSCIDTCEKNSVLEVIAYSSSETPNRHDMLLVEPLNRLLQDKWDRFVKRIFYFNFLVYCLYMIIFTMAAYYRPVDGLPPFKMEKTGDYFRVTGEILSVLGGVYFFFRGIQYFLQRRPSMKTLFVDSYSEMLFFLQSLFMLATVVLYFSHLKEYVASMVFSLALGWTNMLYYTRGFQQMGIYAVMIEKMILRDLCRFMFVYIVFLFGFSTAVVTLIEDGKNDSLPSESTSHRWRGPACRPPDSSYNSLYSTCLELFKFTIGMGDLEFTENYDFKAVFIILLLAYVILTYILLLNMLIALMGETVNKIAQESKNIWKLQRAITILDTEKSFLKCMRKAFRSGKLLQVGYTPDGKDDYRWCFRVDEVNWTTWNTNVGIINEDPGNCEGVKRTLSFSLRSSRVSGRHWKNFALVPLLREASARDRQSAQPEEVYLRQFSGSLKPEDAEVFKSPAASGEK
# [14] = target: T4, Fatty-acid amide hydrolase 1 (Mus musculus, UniProt O08914); assay: Inhibition of FAAH-mediated [14C]-AEA hydrolysis in mouse N18TG2 cell membrane incubated for 30 mins by scintillation counting; assay type: cell membranes
# T4 sequence (O08914 whole entry): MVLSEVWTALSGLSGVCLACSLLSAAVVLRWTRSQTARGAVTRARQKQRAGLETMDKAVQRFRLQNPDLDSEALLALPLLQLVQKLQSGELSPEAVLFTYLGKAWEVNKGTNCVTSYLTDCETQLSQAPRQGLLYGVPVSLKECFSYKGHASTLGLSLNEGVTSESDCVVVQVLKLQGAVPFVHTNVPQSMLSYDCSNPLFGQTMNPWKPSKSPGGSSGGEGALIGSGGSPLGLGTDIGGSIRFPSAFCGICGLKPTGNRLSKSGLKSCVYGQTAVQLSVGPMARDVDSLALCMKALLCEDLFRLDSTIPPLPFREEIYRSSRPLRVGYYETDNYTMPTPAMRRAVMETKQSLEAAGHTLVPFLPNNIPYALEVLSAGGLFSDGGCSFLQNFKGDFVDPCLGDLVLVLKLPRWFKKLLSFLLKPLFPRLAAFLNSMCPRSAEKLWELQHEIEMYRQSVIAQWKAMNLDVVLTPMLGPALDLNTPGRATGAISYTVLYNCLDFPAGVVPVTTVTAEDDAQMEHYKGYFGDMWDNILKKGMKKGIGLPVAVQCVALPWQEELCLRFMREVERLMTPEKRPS
# T1 sequence (P34972 whole entry): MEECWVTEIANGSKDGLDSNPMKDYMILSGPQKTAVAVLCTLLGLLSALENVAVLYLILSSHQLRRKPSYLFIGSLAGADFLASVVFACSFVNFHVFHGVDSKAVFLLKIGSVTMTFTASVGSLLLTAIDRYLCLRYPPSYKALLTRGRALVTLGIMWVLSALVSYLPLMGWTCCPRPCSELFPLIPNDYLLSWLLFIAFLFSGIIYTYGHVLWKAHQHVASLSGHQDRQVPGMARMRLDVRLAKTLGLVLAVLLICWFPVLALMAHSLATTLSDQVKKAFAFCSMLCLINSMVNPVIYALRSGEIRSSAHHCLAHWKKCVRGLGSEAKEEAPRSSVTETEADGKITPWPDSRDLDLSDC
SMILES,Ki (Cannabinoid receptor 2 [1]),Ki (Cannabinoid receptor 1 [2]) [nM],Ki (Cannabinoid receptor 1 [4]) [nM],Ki (Cannabinoid receptor 2 [5]) [nM],also measured
C=C(C)[C@H]1CCC(C(=O)O)=C[C@@H]1c1c(O)cc(C(C)(C)CCCCCC)cc1O,155 nM,5.8,,,Ratio Ki [3]: 0.03
C=C(C)[C@@H]1CCC(C(=O)O)=C[C@H]1c1c(O)cc(CCCCC)cc1O,,,> 1000,> 1000,
C=C(C)[C@H]1CCC(CO)=C[C@@H]1c1c(O)cc(CCCCC)cc1O,,,5.3,101,Ratio Ki [6]: 0.05
COc1cc(C(C)(C)CCCCCCN=C=S)cc(OC)c1[C@@H]1C=C(CO)[C@@H]2C[C@H]1C2(C)C,121 nM,> 1000,,,
C=C(C)[C@H]1CCC(C)=C[C@@H]1c1c(O)cc(CCC)c(C(=O)OC)c1O,,,,,Ki (Cannabinoid receptor 1 [7]): 345 nM; Ki (Cannabinoid receptor 2 [8]): 28 nM; Ratio Ki (Homo sapiens): 12.3
CCCCCc1cc(O)c([C@H]2C=C(CO)CC[C@@H]2C(C)C)c(O)c1,,,,,Ki (Cannabinoid receptor 2 [9]): 12.1 nM; Ki (Cannabinoid receptor 1 [10]): 76.7 nM; Ratio Ki [11]: 6.3
C=C(C)[C@@H]1CCC(C(=O)O)=C[C@H]1c1c(O)cc(C(C)(C)CCCCCC)cc1O,> 1000 nM,> 1000,,,
CCCCCCC(C)(C)c1cc(O)c(-c2c(CO)cccc2C(C)C)c(OC)c1,0.64 nM and 0.28 nM,> 1000,,,Ratio Ki [3]: 17
C=C(C)[C@@H]1CCC(C)=C[C@H]1c1c(O)cc(C(C)(C)CCCCCC)cc1O,,,> 10000,1800,IC50 [12]: 14000 nM
C=C(C)[C@H]1CCC(C)=C[C@@H]1c1c(O)cc(CCCCC)cc1O,,,,,IC50 [12]: 17000 nM; EC50 [13]: 3200 nM; IC50 [14]: 63500 nM
CCCCCCC(C)(C)c1cc(OC)c([C@@H]2C=C(CO)[C@@H]3C[C@H]2C3(C)C)c(OC)c1 [ONTERNABEZ],,> 1000,,,
C=C(C)[C@@H]1CCC(C)=C[C@H]1c1c(OC)cc(C(C)(C)CCCCCC)cc1OC,,,> 1000,> 1000,
C=C(C)[C@@H]1CCC(CO)=C[C@H]1c1c(O)cc(C(C)(C)CCCCCC)cc1O,,,≥ 4000,671,IC50 [12]: 12500 nM
C=C(C)[C@H]1CCC(C(=O)O)=C[C@@H]1c1c(O)cc(CCCCC)cc1O,313 nM,13.2,,,Ratio Ki [3]: 0.04

# Source: ChEMBL document CHEMBL6078669, “Stereoisomers of cannabidiols and their pharmacological activities - A potentially novel direction for cannabinoids” (Bioorg Med Chem, 2025)
